The values that follow come from US6664271B1, “Immunopotentiator agents” (Eli Lilly and Company, priority 1999, dated 2003).

One data set deals with chicken leukocytes. Briefly: cells. In kind it is cell-based. The gist of the method:
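Leukocytes came from EDTA-anticoagulated cardiac blood of 3-6 week old broiler chickens. They were isolated by methylcellulose sedimentation and differential centrifugation, washed in PBS with 50 μg/ml gentamicin, and resuspended in supplemented RPMI 1640. Viable cells were counted by Trypan Blue exclusion.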

Data set [1] relates to mononuclear leukocytes. Put plainly: mammalian T-lymphocyte blastogenesis assay, bovine (Example 75). In kind it is cell-based. The procedure:
(§1) The compound prepared in Example 30, namely (S)-ethyl 1-(2-thiopheneacetyl)-3-peridinecarboxylate, was further evaluated for in vitro T-lymphocyte blastogenic activity from mammalian species other than avian.
(§2) The mammalian blastogenesis assays were conducted with the same protocol as the vian assays with the following exceptions:
(§3) 1. Only mononuclear leukocytes are used for the mammalian assay. The cells are obtained from whole blood by differential centrifugation using Histopague 1.077 (Sigma Chemical Company, St. Louis, Mo).
(§4) 2. 0.5% Fetal Bovine Serum (FBS) [GIBCOBRL, Grand Island N.Y.] is added to RPMI 1640 medium. Exception: Non-human primate plasma is used instead of FBS at 5 ml/liter to RPMI 1640 medium.
(§5) 3. 5×10^5 cells/well were used with the mammalian assays.

Data set [2] concerns mononuclear leukocytes. Put plainly: mammalian T-lymphocyte blastogenesis assay, non-human primate (Example 75). Format: cell-based. The procedure: as §1, §2, §3, §4, §5
The test system of data set [3] is mononuclear leukocytes. Put plainly: mammalian T-lymphocyte blastogenesis assay, porcine (Example 75). Format: cell-based. The procedure:
as §1, §2, §3, §4, §5

The subject of another data set is E. coli. Briefly: colibacillosis infection model in broiler chickens, Trial B (Example 78). In kind it is in vivo, chicken.

Marks after values point to notes of the source that are not given here.

Take `CCOC(=O)[C@H]1CCCN(C(=O)Cc2cccs2)C1` [Example 30, (S)-Ethyl 1-(2-Thiopheneacetyl)-3-piperidinecarboxylate]: the minimal effective concentration in the data set with chicken leukocytes (Gallus gallus, Leukocyte, chicken leukocytes, read at 72 hours, read-out: MSC (Minimum Stimulatory Concentration)) amounted to 0.1 µg/mL. Further, the “MTC (Maximum Tolerable Concentration prior to causing cytotoxicity)” value in the data set on chicken leukocytes (Hubbard/Peterson broiler, chicken, 72 h) stood at 10 µg/mL. In the data set with mononuclear leukocytes [1], the MSC is given as 10 μg μg/ml and the MTC was determined as 1 mg/mL. In the data set with mononuclear leukocytes [2], this compound showed an MSC of 10 μg μg/ml and an MTC of 1 mg/mL. In the data set on mononuclear leukocytes [3], this compound displayed an MSC of 10 μg μg/ml and an MTC of 1 mg/mL. Besides, in the data set with E. coli (2 μg/chick subcutaneous), the “% Colibacillosis-associated Mortality” value amounted to 5%, the “Average Weight Gain/Bird (lbs)” value is given as 2.53 lb (1.15 kg) and the Feed/Gain came to 1.56. For the same compound, in the data set on E. coli (12.5 μg/chick subcutaneous), the “% Colibacillosis-associated Mortality” value is listed as 2.8* %, the “% Total Mortality” value was 10* %, the “Average Weight Gain/Bird (lbs)” value is given as 2.44 lb (1.11 kg) and the Feed/Gain is 1.59. In the data set on E. coli (25 μg/chick subcutaneous), the “% Colibacillosis-associated Mortality” value came out at 6.8%, the “% Total Mortality” value was determined as 14.3%, the “Average Weight Gain/Bird (lbs)” value is on record as 2.49 lb (1.13 kg) and the Feed/Gain is 1.57.
